From ChEMBL document CHEMBL1201862, “PubChem BioAssay data set” (2004)
Calls of active or inactive are those of the source.

Columns and labels:
[1] = biological target: Voltage-dependent T-type calcium channel subunit alpha-1H (Homo sapiens, UniProt O95180); assay type: functional;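 also: channel activity triggered by adding a high calcium stimulation buffer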
[2] = biological target: T1, Replicative DNA helicase DnaB (Mycobacterium tuberculosis, UniProt P9WMR3); experiment: DnaB intein splicing inhibitors, dose response, biochemical, cell-free fluorescence (AID 449749); assay type: functional
T1 sequence (P9WMR3 whole entry): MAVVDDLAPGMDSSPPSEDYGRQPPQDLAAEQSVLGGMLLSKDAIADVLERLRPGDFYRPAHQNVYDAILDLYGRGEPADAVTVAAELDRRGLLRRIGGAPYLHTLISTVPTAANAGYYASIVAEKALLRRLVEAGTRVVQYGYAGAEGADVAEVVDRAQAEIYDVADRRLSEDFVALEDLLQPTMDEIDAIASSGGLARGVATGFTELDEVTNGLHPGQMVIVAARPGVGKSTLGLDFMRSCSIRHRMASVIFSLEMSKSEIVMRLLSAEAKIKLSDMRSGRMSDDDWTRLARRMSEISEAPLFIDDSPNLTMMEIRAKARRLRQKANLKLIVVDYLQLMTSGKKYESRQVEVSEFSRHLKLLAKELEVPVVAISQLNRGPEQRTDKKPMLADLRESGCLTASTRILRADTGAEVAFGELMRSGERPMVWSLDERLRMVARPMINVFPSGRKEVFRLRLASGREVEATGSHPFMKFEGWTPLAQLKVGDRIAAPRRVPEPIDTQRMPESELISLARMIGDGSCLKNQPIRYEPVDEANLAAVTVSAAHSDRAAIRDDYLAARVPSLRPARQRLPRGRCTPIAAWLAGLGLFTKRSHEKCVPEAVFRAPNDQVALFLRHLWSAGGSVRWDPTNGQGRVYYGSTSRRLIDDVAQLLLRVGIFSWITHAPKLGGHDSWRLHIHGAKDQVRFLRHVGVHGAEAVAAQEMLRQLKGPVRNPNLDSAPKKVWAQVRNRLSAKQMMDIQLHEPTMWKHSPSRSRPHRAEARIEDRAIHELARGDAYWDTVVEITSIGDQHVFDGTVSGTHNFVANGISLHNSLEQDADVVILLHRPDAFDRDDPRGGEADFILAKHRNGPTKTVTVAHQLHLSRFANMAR

[3] = HepG2 cell cytotoxicity, dose response, cytotoxicity control for Shn3 inhibitor project, CellTiter-Glo, cherry-picked (AID 624134); assay type: functional, cell-based
Protein RecA = biological target: T2, Protein RecA (Mycobacterium tuberculosis, UniProt P9WHJ3); experiment: Fluorescence Cell-Free Homogeneous Dose Retest to Identify Inhibitors of RecA-Intein Splicing Activity. [Related pubchem assays (depositor defined):AID2097, AID2223, AID489010, AID492950]; assay type: functional
T2 sequence (P9WHJ3 whole entry): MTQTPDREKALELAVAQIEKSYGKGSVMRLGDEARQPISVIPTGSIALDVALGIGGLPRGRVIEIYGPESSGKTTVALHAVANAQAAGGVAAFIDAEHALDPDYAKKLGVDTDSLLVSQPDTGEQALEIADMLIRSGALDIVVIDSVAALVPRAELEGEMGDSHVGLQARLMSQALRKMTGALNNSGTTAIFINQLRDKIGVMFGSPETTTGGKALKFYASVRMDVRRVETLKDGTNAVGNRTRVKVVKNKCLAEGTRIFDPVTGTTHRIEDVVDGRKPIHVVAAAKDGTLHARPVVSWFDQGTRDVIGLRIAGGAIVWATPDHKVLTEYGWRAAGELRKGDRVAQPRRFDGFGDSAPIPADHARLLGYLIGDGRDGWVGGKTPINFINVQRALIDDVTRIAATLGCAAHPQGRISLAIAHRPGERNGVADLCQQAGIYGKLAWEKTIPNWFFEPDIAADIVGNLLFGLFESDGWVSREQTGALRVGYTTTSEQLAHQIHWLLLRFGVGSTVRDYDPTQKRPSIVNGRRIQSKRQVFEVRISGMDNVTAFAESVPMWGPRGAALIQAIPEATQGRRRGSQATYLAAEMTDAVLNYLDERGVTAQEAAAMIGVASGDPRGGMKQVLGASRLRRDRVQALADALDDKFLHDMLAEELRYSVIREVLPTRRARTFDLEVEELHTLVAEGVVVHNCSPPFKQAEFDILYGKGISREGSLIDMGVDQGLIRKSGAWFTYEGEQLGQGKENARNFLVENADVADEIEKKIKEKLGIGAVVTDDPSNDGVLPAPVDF

[4] = control 3'UTR Renilla luciferase suppression, dose response, counter-screen for Shn3 inhibitor project, cell-based, Clone20-Shn3RL, cherry-picked (AID 624133); assay type: functional
[5] = biological target: T3, Carboxy-terminal domain RNA polymerase II polypeptide A small phosphatase 1 (Homo sapiens, UniProt Q9GZU7); experiment: inhibitors of CTDSP1, concentration-response testing, biochemical assay, absorbance-based, actives from ultra-high-throughput screening (AID 540297); assay type: functional
T3 sequence (Q9GZU7 whole entry): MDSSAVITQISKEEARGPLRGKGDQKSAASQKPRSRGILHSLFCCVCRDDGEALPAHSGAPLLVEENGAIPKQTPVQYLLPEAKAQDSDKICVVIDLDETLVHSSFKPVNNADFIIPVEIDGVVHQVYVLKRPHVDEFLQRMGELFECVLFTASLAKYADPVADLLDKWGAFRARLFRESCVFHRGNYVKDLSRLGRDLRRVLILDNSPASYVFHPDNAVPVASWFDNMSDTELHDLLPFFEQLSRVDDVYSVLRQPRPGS

[6] = biological target: Heat shock protein HSP 90-alpha (Homo sapiens, UniProt P07900); assay type: functional, organism-based
[7] = biological target: T4, Heat shock factor protein 1 (Mus musculus, UniProt P38532); experiment: HSF1 potentiators in luciferase reporter cells, confirmation, cell-based, NIH3T3, luminescence, dose retest (AID 435004); assay type: functional;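 also: stress induced by proteasome inhibitor MG132 added 30 min after compound; luciferase reporter driven by HSF1 response element in NIH3T3 cells; actives raise luminescence as potentiators of the MG132 stress response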
T4 sequence (P38532 whole entry): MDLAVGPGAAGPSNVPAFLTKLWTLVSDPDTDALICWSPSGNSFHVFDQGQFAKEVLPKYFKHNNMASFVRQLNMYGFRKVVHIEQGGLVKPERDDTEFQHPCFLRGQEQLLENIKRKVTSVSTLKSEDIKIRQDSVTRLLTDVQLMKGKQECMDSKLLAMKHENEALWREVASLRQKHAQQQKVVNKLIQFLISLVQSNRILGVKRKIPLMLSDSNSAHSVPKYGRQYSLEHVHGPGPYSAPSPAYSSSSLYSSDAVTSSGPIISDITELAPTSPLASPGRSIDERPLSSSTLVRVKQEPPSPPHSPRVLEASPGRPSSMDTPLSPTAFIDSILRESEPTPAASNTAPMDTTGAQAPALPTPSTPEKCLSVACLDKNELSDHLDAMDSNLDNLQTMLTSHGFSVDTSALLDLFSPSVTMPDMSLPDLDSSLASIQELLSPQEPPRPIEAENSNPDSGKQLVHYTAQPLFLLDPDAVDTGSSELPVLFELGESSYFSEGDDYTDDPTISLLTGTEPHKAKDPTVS

[8] = Shn3 3'UTR reporter inhibitors, dose response, cell-based, Clone20 osteoblasts, firefly luciferase, cherry-picked (AID 624132); assay type: functional;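 also: firefly luciferase luminescence from reporter carrying the Shn3 3'UTR in osteoblasts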
Protein skinhead-1 = biological target: T5, Protein skinhead-1 (Caenorhabditis elegans, UniProt P34707); assay type: functional
T5 sequence (P34707 whole entry): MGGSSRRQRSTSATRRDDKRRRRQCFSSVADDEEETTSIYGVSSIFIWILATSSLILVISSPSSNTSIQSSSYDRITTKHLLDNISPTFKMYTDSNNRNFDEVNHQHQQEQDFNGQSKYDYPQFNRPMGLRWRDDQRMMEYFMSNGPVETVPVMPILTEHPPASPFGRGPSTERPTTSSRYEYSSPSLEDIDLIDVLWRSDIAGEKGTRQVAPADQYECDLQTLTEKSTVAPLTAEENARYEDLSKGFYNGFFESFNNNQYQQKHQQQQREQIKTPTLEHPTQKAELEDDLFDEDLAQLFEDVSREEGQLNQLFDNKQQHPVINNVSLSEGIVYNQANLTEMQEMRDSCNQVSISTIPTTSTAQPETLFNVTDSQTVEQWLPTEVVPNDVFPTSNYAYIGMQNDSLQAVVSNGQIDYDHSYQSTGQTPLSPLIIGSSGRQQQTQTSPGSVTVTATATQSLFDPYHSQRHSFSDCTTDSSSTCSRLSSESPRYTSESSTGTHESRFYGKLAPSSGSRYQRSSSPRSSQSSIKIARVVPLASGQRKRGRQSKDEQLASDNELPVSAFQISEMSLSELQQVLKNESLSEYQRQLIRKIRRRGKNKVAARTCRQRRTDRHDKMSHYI

[9] = biological target: T6, Corticotropin-releasing factor receptor 2/Corticotropin-releasing factor-binding protein (Homo sapiens, UniProt P24387+Q13324); experiment: activators of CRF receptor 2 with binding protein – uHTS hits, confirmation (AID 602473); assay type: functional; conditions: read-out: EC50_Mean
T6 sequence (Q13324 whole entry): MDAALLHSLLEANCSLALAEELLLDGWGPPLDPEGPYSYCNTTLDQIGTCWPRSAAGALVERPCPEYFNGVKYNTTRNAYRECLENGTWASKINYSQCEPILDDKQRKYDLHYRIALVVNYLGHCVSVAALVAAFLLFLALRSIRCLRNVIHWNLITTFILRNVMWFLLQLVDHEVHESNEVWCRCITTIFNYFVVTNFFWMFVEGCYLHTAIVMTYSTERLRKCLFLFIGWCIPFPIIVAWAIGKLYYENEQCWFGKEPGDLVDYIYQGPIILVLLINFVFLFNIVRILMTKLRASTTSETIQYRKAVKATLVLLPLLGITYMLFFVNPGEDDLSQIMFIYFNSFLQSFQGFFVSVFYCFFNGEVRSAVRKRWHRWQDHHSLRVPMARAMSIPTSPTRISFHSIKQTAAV
T6 sequence (P24387 whole entry): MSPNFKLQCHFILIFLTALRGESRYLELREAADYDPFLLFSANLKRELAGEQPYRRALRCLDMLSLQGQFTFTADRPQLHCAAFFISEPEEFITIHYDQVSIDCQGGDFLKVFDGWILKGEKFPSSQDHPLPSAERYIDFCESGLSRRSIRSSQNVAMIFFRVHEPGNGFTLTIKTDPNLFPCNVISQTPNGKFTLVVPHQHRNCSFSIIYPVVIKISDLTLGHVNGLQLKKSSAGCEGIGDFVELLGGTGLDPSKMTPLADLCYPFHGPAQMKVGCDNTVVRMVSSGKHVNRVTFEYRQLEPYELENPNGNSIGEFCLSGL

Paired box protein Pax-8 = Paired box protein Pax-8 (Homo sapiens, UniProt Q06710); experiment: inhibitors of PAX8-driven TPO luciferase reporter, dose response, RMG-I cells, cherry-pick (AID 687027); assay type: functional, cell-based;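 also: luciferase reporter driven by Pax8 target thyroperoxidase promoter measured by SteadyGlo luminescence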
[10] = Luminescence Cell-Based Dose Retest to Confirm Inhibitors of Cancer Stem Cells. [Related pubchem assays (depositor defined):AID2717, AID2721]; assay type: functional; conditions: Homo sapiens
[11] = intracellular Trypanosoma cruzi inhibitors in host cells – cell-based, plate reader, cherry-pick samples, set 3, dose response (AID 651818); assay type: functional;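 also: compounds incubated with infected cells for about four days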

Voltage-dependent T-type calcium channel subunit alpha-1H, sequence (O95180 whole entry): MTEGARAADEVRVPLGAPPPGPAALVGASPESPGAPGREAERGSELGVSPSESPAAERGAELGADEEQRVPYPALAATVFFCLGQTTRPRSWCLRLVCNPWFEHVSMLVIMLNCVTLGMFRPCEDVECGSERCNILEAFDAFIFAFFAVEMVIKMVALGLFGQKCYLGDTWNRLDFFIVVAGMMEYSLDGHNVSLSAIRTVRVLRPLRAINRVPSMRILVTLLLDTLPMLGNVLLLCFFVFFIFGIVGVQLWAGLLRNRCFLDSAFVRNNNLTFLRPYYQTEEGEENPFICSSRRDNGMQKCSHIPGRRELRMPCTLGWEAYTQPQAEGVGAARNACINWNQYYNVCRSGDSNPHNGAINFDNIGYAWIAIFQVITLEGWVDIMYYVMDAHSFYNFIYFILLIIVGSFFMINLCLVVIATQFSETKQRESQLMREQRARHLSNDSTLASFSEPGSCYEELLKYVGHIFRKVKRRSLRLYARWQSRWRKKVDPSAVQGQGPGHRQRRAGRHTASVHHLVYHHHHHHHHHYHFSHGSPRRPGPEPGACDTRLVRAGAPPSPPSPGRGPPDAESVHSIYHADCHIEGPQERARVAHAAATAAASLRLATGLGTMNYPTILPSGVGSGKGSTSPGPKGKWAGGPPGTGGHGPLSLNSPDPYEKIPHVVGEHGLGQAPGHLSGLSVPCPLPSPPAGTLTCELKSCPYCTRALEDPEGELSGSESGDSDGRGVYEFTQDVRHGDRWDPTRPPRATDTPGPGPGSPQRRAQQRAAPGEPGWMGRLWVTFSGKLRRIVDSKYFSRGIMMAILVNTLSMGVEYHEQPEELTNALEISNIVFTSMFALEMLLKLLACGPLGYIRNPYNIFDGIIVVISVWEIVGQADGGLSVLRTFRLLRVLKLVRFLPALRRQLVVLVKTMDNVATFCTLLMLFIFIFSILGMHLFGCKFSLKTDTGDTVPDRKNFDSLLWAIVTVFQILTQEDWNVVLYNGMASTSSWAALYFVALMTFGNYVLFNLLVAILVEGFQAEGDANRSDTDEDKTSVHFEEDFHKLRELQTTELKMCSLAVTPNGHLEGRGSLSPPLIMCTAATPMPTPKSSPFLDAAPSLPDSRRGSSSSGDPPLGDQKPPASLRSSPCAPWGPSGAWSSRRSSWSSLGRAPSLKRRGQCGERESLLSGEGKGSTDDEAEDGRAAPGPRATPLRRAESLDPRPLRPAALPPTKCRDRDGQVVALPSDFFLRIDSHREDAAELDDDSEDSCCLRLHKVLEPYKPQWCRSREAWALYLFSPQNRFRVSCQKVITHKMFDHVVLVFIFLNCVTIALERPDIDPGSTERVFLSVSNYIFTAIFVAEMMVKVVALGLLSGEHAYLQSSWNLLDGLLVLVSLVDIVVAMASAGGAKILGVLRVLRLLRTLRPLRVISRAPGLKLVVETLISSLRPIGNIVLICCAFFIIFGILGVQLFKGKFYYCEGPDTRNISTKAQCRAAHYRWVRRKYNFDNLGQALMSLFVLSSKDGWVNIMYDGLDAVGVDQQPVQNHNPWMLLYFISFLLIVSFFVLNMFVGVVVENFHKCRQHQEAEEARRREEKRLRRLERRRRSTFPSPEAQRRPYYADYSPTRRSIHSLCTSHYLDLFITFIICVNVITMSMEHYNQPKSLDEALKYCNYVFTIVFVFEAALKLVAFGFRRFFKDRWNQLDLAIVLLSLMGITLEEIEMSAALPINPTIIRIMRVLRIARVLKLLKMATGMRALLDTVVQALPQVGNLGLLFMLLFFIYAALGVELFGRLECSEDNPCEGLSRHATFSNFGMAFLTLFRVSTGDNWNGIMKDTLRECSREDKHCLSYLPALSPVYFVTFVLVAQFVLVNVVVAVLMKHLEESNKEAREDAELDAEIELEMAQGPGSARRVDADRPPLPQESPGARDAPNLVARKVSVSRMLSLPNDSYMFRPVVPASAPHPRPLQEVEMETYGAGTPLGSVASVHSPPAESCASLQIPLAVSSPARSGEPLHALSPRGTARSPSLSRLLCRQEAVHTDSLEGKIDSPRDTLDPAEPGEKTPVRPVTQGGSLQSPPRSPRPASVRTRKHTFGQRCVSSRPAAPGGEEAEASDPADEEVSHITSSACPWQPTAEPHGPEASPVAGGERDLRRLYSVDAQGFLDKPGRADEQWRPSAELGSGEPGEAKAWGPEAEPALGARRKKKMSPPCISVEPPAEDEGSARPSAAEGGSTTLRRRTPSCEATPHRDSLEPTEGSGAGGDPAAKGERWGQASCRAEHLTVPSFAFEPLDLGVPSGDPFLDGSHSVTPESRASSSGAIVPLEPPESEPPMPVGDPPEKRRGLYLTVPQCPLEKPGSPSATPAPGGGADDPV
Paired box protein Pax-8, sequence (Q06710 whole entry): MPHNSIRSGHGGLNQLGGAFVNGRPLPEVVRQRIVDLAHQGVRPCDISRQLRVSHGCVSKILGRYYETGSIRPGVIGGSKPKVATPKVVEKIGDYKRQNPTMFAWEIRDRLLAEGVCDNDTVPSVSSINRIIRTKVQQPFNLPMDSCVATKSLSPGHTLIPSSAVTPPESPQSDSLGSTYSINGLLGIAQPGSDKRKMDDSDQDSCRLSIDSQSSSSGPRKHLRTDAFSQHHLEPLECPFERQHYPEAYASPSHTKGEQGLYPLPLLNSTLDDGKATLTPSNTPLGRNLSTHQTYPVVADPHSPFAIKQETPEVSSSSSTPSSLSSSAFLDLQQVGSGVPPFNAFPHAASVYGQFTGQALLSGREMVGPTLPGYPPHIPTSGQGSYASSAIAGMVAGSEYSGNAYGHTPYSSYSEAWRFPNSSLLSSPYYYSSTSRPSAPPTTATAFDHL

Compound: CC1CCCN(C(=O)CSCC(=O)Nc2nc(-c3cccs3)cs2)C1 (centres undefined)
- EC50 [1]: 4.52 µM (active)

Compound: COc1ccc(NC(=O)C2CCCN2S(=O)(=O)c2ccc3c(c2)CCC(=O)N3)cc1 (centres undefined)
- EC50 [1]: 9.23 µM (active)

Compound: Cc1[nH]c2ccccc2c1NC(=O)CN1CCN(c2cccc(C(F)(F)F)c2)CC1
- EC50 [1]: 4.61 µM (active)

Compound: CC1=NN(c2cccc([N+](=O)[O-])c2)C(=O)C1
- AC50 [2]: 14.4 µM (active)
- AC50 [3]: > 70 µM (inactive)
- EC50 (Protein RecA): 19.5 µM (active)
- AC50 [4]: 29.5 µM (active)

Compound: Cc1nc(SCC(=O)NCc2ccc3c(c2)OCO3)c(C#N)c2c1CCCC2
- EC50 [1]: 5.41 µM (active)

Compound: O=C(CCNC(=O)c1ccccc1)NN=Cc1ccc(Br)o1
- IC50 [5]: 10.2 µM (active)

Compound: COc1ccc(S(=O)(=O)NC2CC3CCC2C3)cc1Cl (centres undefined)
- AC50 [6]: 3.41 µM (active)

Compound: COc1cc(/C=C2\SC(=S)N(Nc3ncc(C(F)(F)F)cc3Cl)C2=O)ccc1O
- EC50 [7]: 36 µM (active)
- AC50 [6]: 12.4 µM (active)

Compound: COc1ccc([C@H]2CC(=O)C=C(c3ccc(F)cc3OCc3ccccc3)C2)cc1OC
- AC50 [3]: > 70 µM (inactive)
- AC50 [4]: 16.1 µM (active)
- AC50 [8]: 7.36 µM (active)

Compound: O=C(NCc1ccc2c(c1)OCO2)C1CC(c2ccc(Cl)cc2)=NO1 (centres undefined)
- EC50 [1]: 0.496 µM (active)

Compound: CCN(CC)C(=S)Sc1c(-c2ccccc2)c2cc(Cl)ccc2[nH]c1=O
- IC50 (Protein skinhead-1): > 100 µM (inactive)
- EC50 [9]: > 53 µM (inactive)

Compound: CC(=O)c1cccc(-c2csc3ncnc(Sc4nnnn4C)c23)c1
- AC50 (Paired box protein Pax-8): 3.1 µM (active)
- AC50 [3]: 53.4 µM (active)
- AC50 [4]: 15.5 µM (active)
- AC50 [8]: 4.72 µM (active)

Compound: CCCn1c(NCc2c[nH]c3ccccc23)nc2ccccc21
- EC50 [1]: 5.89 µM (active)

Compound: O=C(Nc1ccc(S(=O)(=O)Nc2nccs2)cc1)c1ccc(O)nc1
- IC50 [5]: 7.11 µM (active)

Compound: CCN(CC)P(=O)(c1n(CC)cc[n+]1CC)N(CC)CC
- IC50 [5]: 3.98 µM (active)

Compound: CC(C)CCC(C(=O)NC(C)c1ccccc1)C(=O)NC(C)c1ccccc1 (centres undefined)
- IC50 [5]: 11.7 µM (active)

Compound: CCC1Sc2ccccc2N(CC(=O)NCCC2=CCCCC2)C1=O (centres undefined)
- EC50 [1]: 4.76 µM (active)

Compound: COc1ccc(-c2sc3ccccc3c2/C=C/c2ccncc2)cc1
- AC50 [6]: 3.9 µM (active)
- AC50 [10]: 4.57 µM (active)

Compound: Cc1c(CN2CCCC(C(=O)Nc3cccc(-n4cccn4)c3)C2)cnn1C (centres undefined)
- IC50 (Protein skinhead-1): > 100 µM (inactive)

Compound: C[C@H](CO)N1C[C@H](C)[C@@H](CN(C)Cc2ccc(-c3ccccc3)cc2)Oc2ccc(NS(=O)(=O)c3ccccc3)cc2C1=O
- AC50 [11]: 4.49 µM (active)

Compound: C[C@H]1CN([C@@H](C)CO)C(=O)c2cccc(NC(=O)c3nc4ccccc4s3)c2O[C@@H]1CN(C)Cc1ccc(-c2ccccc2)cc1
- AC50 [11]: 1.22 µM (active)

Compound: COc1ccc(NC(=O)N(C)C[C@H]2Oc3c(NS(=O)(=O)c4ccc(F)cc4)cccc3C(=O)N([C@@H](C)CO)C[C@H]2C)cc1
- AC50 [11]: 4.14 µM (active)

Compound: C[C@@H]1CCCCO[C@H](CN(C)Cc2ccc(C(F)(F)F)cc2)[C@@H](C)CN([C@H](C)CO)C(=O)c2cc(NC(=O)Nc3cccc4ccccc34)ccc2O1
- AC50 [11]: 2.91 µM (active)
